Tests used:
[1] = Drug release rate in vitro from dimethylpolysiloxane rubber, Method A (calcium-free Ringer's, assayed by acrosin inhibition); assay type: physicochemical
Protocol: An appropriate sample of a dimethylpolysiloxane rubber compound in which is incorporated the test compound is placed in a suitable amount of calcium-free Ringers solution, and the sample and solution are incubated together at 37° C. for a period of time (e.g. 24 hours). The solution is removed and assayed for acrosin inhibition (expressed as units per milligram) using the technique described in Example 1. The equivalent amount of test compound in the removed solution is calculated from standard inhibition curves in which acrosin inhibition is plotted against concentration of the test compound. The calculated result are expressed as micrograms of test compound released per day.
The above test may be repeated for an extended period of time, for example, for 1 day to 360 days, or more, by adding fresh calcium-free Ringer's solution after each removal of the solution for assay.
Samples of a dimethylpolysiloxane rubber composition containing 10% W/W of sodium n-tetradecyl sulfate (prepared by Example 3, Method A) were tested as above described for 14 days. The sample weight was 14 mg. and the amount of added solution was 1 ml. After the 14th day, the release rate from the samples averaged 1-3 micrograms/day.
In another experiment, a dimethylpolysiloxane rubber composition weighing 400 mg. and containing 10% W/W of sodium tetradecyl sulfate (prepared by Example 3, Method A) was studied for a 90-day period.

[2] = Drug release rate in vitro from dimethylpolysiloxane rubber rod, Method B (water, methylene blue method); assay type: physicochemical; conditions: rod 341.4 mg, 10% W/W
Protocol: A dimethylpolysiloxane rubber rod (3 cm. long, 3 mm. diameter) weighing 341.4 mg. and containing 10% (W/W) of dispersed sodium n-tetradecyl sulfate (prepared by Example 3, Method B, lot no. 225-1) is placed in a container and is covered with 10 ml. of water. The rod and the water are incubated together at 37° C. for a seven-day period, after which the water is removed. The sodium n-tetradecyl sulfate in the water is determined by the methylene blue method as described by K. Hiyashi, Analytical Biochemistry, 67, 503 (1975).
The above procedure may be repeated at 7-day intervals by adding fresh water to the rod after each removal of water for assay. Table 5, below, gives the results of a test performed as above-described for 140 days.

sperm = test: Standard in vitro spermicidal tests (kill or immobilize sperm); assay type: cell-based; conditions: standard in vitro tests: ability to kill or immobilize sperm
Source text: The alkyl or alkenyl sulfate salts have surface-active properties, and the sodium salts of dodecyl sulfate (lauryl sulfate), tetradecyl sulfate (myristyl sulfate), and hexadecyl sulfate (cetyl sulfate) are particularly useful surfactants for many applications. Sodium lauryl sulfate, for example, is widely used in topical creams, lotions and other preparations used for pharmaceutical or cosmetic purposes. A mixture of sodium lauryl sulfate and sodium myristyl sulfate is used commercially as a wetting agent, primarily in the paper industry. It is well known that surfactants may denature proteins when present in aqueous solutions in sufficient concentrations because the surface activity may affect peptide conformation.

With CCCCCCCCCCCCCCOS(=O)(=O)[O-].[Na+] [n-tetradecyl, sodium n-tetradecyl sulfate] the “release rate from the samples (average)” value ([1]; 14 mg sample, 10% W/W, 1 ml solution, after the 14th day) was 1-3 micrograms/day, the mean release rate ([1]; 400 mg composition, 10% W/W, 90-day period) was 14 µg/day and the “Amount of sodium n-tetradecyl sulfate released” value ([1]; Day 0.08 (2 hr.), 400 mg composition, 10% W/W) was 77 µg/day. The “Amount of sodium n-tetradecyl sulfate released” value ([1]; Day 0.16 (2 hr.), 400 mg composition, 10% W/W) was 75 µg/day, the “Amount of sodium n-tetradecyl sulfate released” value ([1]; Day 0.32 (8 hr.), 400 mg composition, 10% W/W) was 72 µg/day and the “Amount of sodium n-tetradecyl sulfate released” value ([1]; Day 1, 400 mg composition, 10% W/W) was 69 µg/day. For the same compound, the “Amount of sodium n-tetradecyl sulfate released” value ([1]; Day 2, 400 mg composition, 10% W/W) was 50 µg/day, the “Amount of sodium n-tetradecyl sulfate released” value ([1]; Day 5, 400 mg composition, 10% W/W) was 15 µg/day and the “Amount of sodium n-tetradecyl sulfate released” value ([1]; Day 7, 400 mg composition, 10% W/W) was 37.5 µg/day. The “Amount of sodium n-tetradecyl sulfate released” value ([1]; Day 9, 400 mg composition, 10% W/W) was 50.0 µg/day, the “Amount of sodium n-tetradecyl sulfate released” value ([1]; Day 12, 400 mg composition, 10% W/W) was 13 µg/day and the “Amount of sodium n-tetradecyl sulfate released” value ([1]; Day 13, 400 mg composition, 10% W/W) was 0 µg/day. For the same compound, the “Amount of sodium n-tetradecyl sulfate released” value ([1]; Day 15, 400 mg composition, 10% W/W) was 25 µg/day, the “Amount of sodium n-tetradecyl sulfate released” value ([1]; Day 18, 400 mg composition, 10% W/W) was 28 µg/day and the “Amount of sodium n-tetradecyl sulfate released” value ([1]; Day 27, 400 mg composition, 10% W/W) was 10 µg/day. For the same compound, the “Amount of sodium n-tetradecyl sulfate released” value ([1]; Day 42.5, 400 mg composition, 10% W/W) was 7.6 µg/day, the “Amount of sodium n-tetradecyl sulfate released” value ([1]; Day 50.5, 400 mg composition, 10% W/W) was 10.5 µg/day and the “Amount of sodium n-tetradecyl sulfate released” value ([1]; Day 57.5, 400 mg composition, 10% W/W) was 12.0 µg/day. For the same compound, the “Amount of sodium n-tetradecyl sulfate released” value ([1]; Day 64.5, 400 mg composition, 10% W/W) was 8.6 µg/day, the “Amount of sodium n-tetradecyl sulfate released” value ([1]; Day 72.5, 400 mg composition, 10% W/W) was 8.3 µg/day and the “Amount of sodium n-tetradecyl sulfate released” value ([1]; Day 76, 400 mg composition, 10% W/W) was 5.6 µg/day. For the same compound, the “Amount of sodium n-tetradecyl sulfate released” value ([1]; Day 83, 400 mg composition, 10% W/W) was 5.1 µg/day, the “Amount of sodium n-tetradecyl sulfate released” value ([1]; Day 90, 400 mg composition, 10% W/W) was 5.0 µg/day and the “Release rate from dimethylpolysiloxane, in vitro (Calc. on basis of acrosin inhibition)” value ([1]; rod used in Table 6) was 1 to 3 mg/day. For the same compound, the “Amount of sodium n-tetradecyl sulfate released Per day Calc.” value ([2]; Day 7) was 1.3 µg, the “Amount of sodium n-tetradecyl sulfate released Per 7 days” value ([2]; Day 7, 10 ml water 37° C.) was 9 µg and the “Amount of sodium n-tetradecyl sulfate released Per 7 days” value ([2]; Day 14) was 1.9 µg. For the same compound, the “Amount of sodium n-tetradecyl sulfate released Per day Calc.” value ([2]; Day 14) was 0.3 µg, the “Amount of sodium n-tetradecyl sulfate released Per 7 days” value ([2]; Day 21) was 34.2 µg and the “Amount of sodium n-tetradecyl sulfate released Per day Calc.” value ([2]; Day 21) was 4.9 µg. For the same compound, the “Amount of sodium n-tetradecyl sulfate released Per 7 days” value ([2]; Day 28) was 160 µg, the “Amount of sodium n-tetradecyl sulfate released Per day Calc.” value ([2]; Day 28) was 22.8 µg and the “Amount of sodium n-tetradecyl sulfate released Per 7 days” value ([2]; Day 35) was 290 µg. For the same compound, the “Amount of sodium n-tetradecyl sulfate released Per day Calc.” value ([2]; Day 35) was 41.4 µg, the “Amount of sodium n-tetradecyl sulfate released Per 7 days” value ([2]; Day 42) was 144 µg and the “Amount of sodium n-tetradecyl sulfate released Per day Calc.” value ([2]; Day 42) was 20.6 µg. The “Amount of sodium n-tetradecyl sulfate released Per 7 days” value ([2]; Day 49) was 947 µg, the “Amount of sodium n-tetradecyl sulfate released Per day Calc.” value ([2]; Day 49) was 135.3 µg and the “Amount of sodium n-tetradecyl sulfate released Per 7 days” value ([2]; Day 56) was 133 µg. For the same compound, the “Amount of sodium n-tetradecyl sulfate released Per day Calc.” value ([2]; Day 56) was 19 µg, the “Amount of sodium n-tetradecyl sulfate released Per 7 days” value ([2]; Day 63) was 111 µg and the “Amount of sodium n-tetradecyl sulfate released Per day Calc.” value ([2]; Day 63) was 16 µg. For the same compound, the “Amount of sodium n-tetradecyl sulfate released Per 7 days” value ([2]; Day 70) was 333 µg, the “Amount of sodium n-tetradecyl sulfate released Per day Calc.” value ([2]; Day 70) was 47.5 µg and the “Amount of sodium n-tetradecyl sulfate released Per 7 days” value ([2]; Day 77) was 111 µg. For the same compound, the “Amount of sodium n-tetradecyl sulfate released Per day Calc.” value ([2]; Day 77) was 16.0 µg, the “Amount of sodium n-tetradecyl sulfate released Per 7 days” value ([2]; Day 84) was 0 µg and the “Amount of sodium n-tetradecyl sulfate released Per day Calc.” value ([2]; Day 84) was 0 µg. For the same compound, the “Amount of sodium n-tetradecyl sulfate released Per 7 days” value ([2]; Day 91) was 105 µg, the “Amount of sodium n-tetradecyl sulfate released Per day Calc.” value ([2]; Day 91) was 15 µg and the “Amount of sodium n-tetradecyl sulfate released Per 7 days” value ([2]; Day 98) was 644 µg. The “Amount of sodium n-tetradecyl sulfate released Per day Calc.” value ([2]; Day 98) was 92 µg, the “Amount of sodium n-tetradecyl sulfate released Per 7 days” value ([2]; Day 105) was 1477 µg and the “Amount of sodium n-tetradecyl sulfate released Per day Calc.” value ([2]; Day 105) was 211 µg. The “Amount of sodium n-tetradecyl sulfate released Per 7 days” value ([2]; Day 112) was 430 µg, the “Amount of sodium n-tetradecyl sulfate released Per day Calc.” value ([2]; Day 112) was 61.4 µg and the “Amount of sodium n-tetradecyl sulfate released Per 7 days” value ([2]; Day 119) was 600 µg. For the same compound, the “Amount of sodium n-tetradecyl sulfate released Per day Calc.” value ([2]; Day 119) was 85.7 µg, the “Amount of sodium n-tetradecyl sulfate released Per 7 days” value ([2]; Day 126) was 1500 µg and the “Amount of sodium n-tetradecyl sulfate released Per day Calc.” value ([2]; Day 126) was 214.3 µg. For the same compound, the “Amount of sodium n-tetradecyl sulfate released Per 7 days” value ([2]; Day 133) was 2600 µg, the “Amount of sodium n-tetradecyl sulfate released Per day Calc.” value ([2]; Day 133) was 371 µg and the “Amount of sodium n-tetradecyl sulfate released Per 7 days” value ([2]; Day 140) was 4000 µg. For the same compound, the “Amount of sodium n-tetradecyl sulfate released Per day Calc.” value ([2]; Day 140) was 571 µg, the “Percent of compound released after 140 days” value ([2]; initial amount 34.14 mg.) was 37% and the “Total amount of compound released after 140 days” value ([2]; initial amount 34.14 mg.) was 12.63 mg. For the same compound, the classical spermicidal activity (sperm) was “does not show classical spermicidal activity”.

Reference: patent publication US4264577A, “Contraceptive methods and compositions” (Eli Lilly and Company, priority 1980, dated 1981)
